Source: patent publication US20230181677A1, “POLYPEPTIDE FOR PROMOTING BONE REGENERATION OR BONE FORMATION AND ITS USE” (SEWON BIOTECHNOLOGY INC., priority 2016, published 2023)
Where no end group is shown, it is not given here.

Assays:
femur muscle of mouse = assay: ectopic ossification analysis, ACS graft in femur muscle, micro-CT; type: in vivo; conditions: BMP-2 2 μg left femur, peptide 600 μg right femur; n=10; eight weeks after operation
Description: Eight weeks after the operation, animals were euthanized and micro-CT analysis was performed to observe calcification (ectopic ossification) in the muscle. All 10 animals were used.

[1] = tested on: undifferentiated stem cells; assay: ALP activity of undifferentiated stem cells cultured on titanium disk (osteocyte differentiation); type: cell-based; conditions: peptide 10 μM, 6 hours then osteoblast differentiation medium 48 hours, versus control (C)
Description: As described above, on the surface of hard structures such as bones or on the surface where cells are difficult to attach to, the peptide of the present invention can promotes the cell adhesion which is a key mechanism for the regeneration. […] Therefore, in this Example, various adhesive peptides developed and disclosed in the present disclosure were used to test their activity for promoting the osteocyte differentiation. For this, each peptide was mixed with undifferentiated stem cells, which was then cultured on a titanium osteoconductive surface, and analyzed the cells for the differentiation into osteocytes. Two×10^4 cells/ml treated with trypsin and mixed with peptide (10 μM) were cultured on a dental titanium disk having a diameter of 10 mm in size for 6 hours, after which the medium was replaced with osteoblast differentiation medium and the cells were cultured for 48 hours. Then the discs were recovered and the cells were lysed and ALP (Alkaline phosphatase) activity was measured.

| Substance | ectopic ossification (calcification in the muscle), micro-CT (femur muscle of mouse) | ALP (Alkaline phosphatase) activity [1] |
| --- | --- | --- |
| RQLVVKFRALPC [present peptide] | no ectopic ossification in all the mice treated |  |
| (R) 15-QLVVKFRALPC (RRRRRRRRRRRRRRRQLVVKFRALPC) [SEQ ID NO: 41, peptide positively charged at the N-terminus containing 15 arginine residues] |  | highest ALP activity |
